# In patent publication US6969697B2, “Substituted benzoylcyclohexenones” (Bayer Aktiengesellschaft, priority 2000, dated 2005):
# Key:
# wheat = experiment: Post-emergence test (Example B), crop plant tolerance, wheat; assay type: in vivo; details: rated after three weeks
# Experimental: (§1) • Solvent: 5 parts by weight of acetone • Emulsifier: 1 part by weight of alkilaryl polyglycol ether
# (§2) To produce a suitable preparation of active compound, 1 part by weight of active compound is mixed with the stated amount of solvent, the stated amount of emulsifier is added and the concentrate is diluted with water to the desired concentration.
# (§3) Test plants of a height of 5-15 cm are sprayed with the preparation of active compound such that the particular amounts of active compound desired are applied per unit area. The concentration of the spray liquor is chosen such that the particular amounts of active compound desired are applied in 1000 l of water/ha.
# (§4) After three weeks, the degree of damage to the plants is rated in % damage in comparison to the development of the untreated control.
# (§5) The figures denote: • 0%=no effect (like untreated control) • 100%=total destruction
# weeds [1] = experiment: Post-emergence test (Example B), herbicidal activity; assay type: in vivo; details: test plants 5-15 cm sprayed, rated after three weeks
# Experimental: as §1, §2, §3, §4, §5
# maize [2] = experiment: Post-emergence test (Example B), crop plant tolerance, maize; assay type: in vivo; details: rated after three weeks
# Experimental: as §1, §2, §3, §4, §5
# [3] = logP by reversed-phase HPLC (EEC Directive 79/831 Annex V.A8), acidic range; assay type: physicochemical; details: reversed-phase column (C 18), 43° C.; a) acidic range: 0.1% aqueous phosphoric acid, acetonitrile, linear gradient 10% to 90%
# Experimental: The logP values given in Table 1 were determined in accordance with EEC Directive 79/831 Annex V.A8 by HPLC (High Performance Liquid Chromatography) using a reversed-phase column (C 18). Temperature: 43° C. • (a) Mobile phases for the determination in the acidic range: 0.1% aqueous phosphoric acid, acetonitrile; linear gradient from 10% acetonitrile to 90% acetonitrile—the corresponding data are labelled ^a) in Table 1. • (b) Mobile phases for the determination in the neutral range: 0.01 molar aqueous phosphate buffer solution, acetonitrile; linear gradient from 10% acetonitrile to 90% acetonitrile—corresponding data are labelled ^b) in Table 1.
# Calibration was carried out using unbranched alkan-2-ones (having 3 to 16 carbon atoms), with known logP values (determination of the logP values by the retention times using linear interpolation between two successive alkanones).
# maize [4] = experiment: Pre-emergence test (Example A), crop plant tolerance; assay type: in vivo; details: rated after three weeks
# Experimental: as §1, §2
# (§6) Seeds of the test plants are sown in normal soil. After 24 hours, the soil is sprayed with the preparation of active compound such that the particular amount of active compound desired is applied per unit area. The concentration of active compound in the spray liquor is chosen such that the particular amount of active compound desired is applied in 1000 litres of water per hectare.
# (§7) After three weeks, the degree of damage to the plants is rated in % damage in comparison to the development of the untreated control. The figures denote: • 0%=no effect (like untreated control) • 100%=total destruction
# weeds [5] = experiment: Pre-emergence test (Example A), herbicidal activity; assay type: in vivo; details: soil sprayed 24 hours after sowing, rated after three weeks
# Experimental: as §1, §2, §6, §7
Structure (SMILES),logP [3],tolerance by crop plants (wheat),activity against weeds (degree of damage) (weeds [1]),tolerance by crop plants (maize [2]),other results
"CN1CCCN(Cc2c(Cl)ccc(C(=O)C3=C(Sc4ccccc4)CCCC3=O)c2Cl)C1=O [Example 1, 1-[2,6-dichloro-3-[(6-oxo-2-phenylthio-1-cyclohexen-1-yl)-carbonyl]-benzyl]-3-methyl-tetrahydro-2(1H)-pyrimidinone]",–,tolerated well,strong activity against weeds,tolerated well,melting point: 140 °C
CSc1nn(Cc2c(Cl)ccc(C(=O)C3=C(Sc4ccccc4)CCCC3=O)c2Cl)c(=O)n1C [Example 4],logP = 3.29^a),–,–,–,–
O=C1CCCC(Sc2ccccc2)=C1C(=O)c1ccc(Cl)c(Cn2nc(C3CC3)n(C3CC3)c2=O)c1Cl [Example 5],logP = 3.50^a),tolerated well,strong activity against weeds,tolerated well,–
CSc1nn(Cc2c(S(C)(=O)=O)ccc(C(=O)C3=C(Sc4ccccc4)CCCC3=O)c2Cl)c(=O)n1C [Example 6],logP = 2.84^a),–,–,–,–
COc1nn(Cc2c(S(C)(=O)=O)ccc(C(=O)C3=C(Sc4ccccc4)CCCC3=O)c2Cl)c(=O)n1C [Example 7],logP = 2.67^a),–,–,–,–
CCN1CCN(Cc2c(S(C)(=O)=O)ccc(C(=O)C3=C(Sc4ccccc4)CCCC3=O)c2Cl)C1=O [Example 9],logP = 2.79^a),–,–,–,–
CCOn1c(CC)nn(Cc2c(S(C)(=O)=O)ccc(C(=O)C3=C(Sc4ccccc4)CCCC3=O)c2Cl)c1=O [Example 10],logP = 3.13^a),–,–,–,–
CC(C)Oc1nn(Cc2c(Cl)ccc(C(=O)C3=C(Sc4ccccc4)CCCC3=O)c2Cl)c(=O)n1C [Example 12],logP = 3.69^a),–,–,–,–
CN(C)c1nn(Cc2c(Cl)ccc(C(=O)C3=C(Sc4ccccc4)CCCC3=O)c2Cl)c(=O)n1C [Example 13],logP = 3.10^a),–,–,–,–
COc1nn(Cc2c(Cl)ccc(C(=O)C3=C(S(=O)(=O)c4ccccc4)CCCC3=O)c2Cl)c(=O)n1C [Example 14],logP = 2.62^a),–,–,–,–
CSc1nn(Cc2cc(C(F)(F)F)ccc2C(=O)C2=C(Sc3ccccc3)CCCC2=O)c(=O)n1C [Example 16],logP = 3.58^a),tolerated well,strong activity against weeds,tolerated well,tolerance by crop plants (maize [4]): tolerated well; activity against weeds (degree of damage) (weeds [5]): strong activity against weeds
CSC1=C(C(=O)c2ccc(C(F)(F)F)cc2Cn2nc(SC)n(C)c2=O)C(=O)CCC1 [Example 17],logP = 2.63^a),tolerated well,strong activity against weeds,tolerated well,–
COc1nn(Cc2cc(C(F)(F)F)ccc2C(=O)C2=C(Sc3ccccc3)CCCC2=O)c(=O)n1C [Example 18],logP = 3.30^a),tolerated well,strong activity against weeds,tolerated well,–
COc1nn(Cc2cc(C(F)(F)F)ccc2C(=O)C2=C(SC)CCCC2=O)c(=O)n1C [Example 19],logP = 2.41^a),tolerated well,strong activity against weeds,tolerated well,–

# Continued, in another order:
logP [3],Structure (SMILES),tolerance by crop plants (wheat),activity against weeds (degree of damage) (weeds [1]),tolerance by crop plants (maize [2]),other results
logP = 3.02^a),CN1CCN(Cc2c(Cl)ccc(C(=O)C3=C(Sc4ccccc4)CCCC3=O)c2Cl)C1=O [Example 2],tolerated well,strong activity against weeds,tolerated well,–
logP = 3.30^a),CCN1CCN(Cc2c(Cl)ccc(C(=O)C3=C(Sc4ccccc4)CCCC3=O)c2Cl)C1=O [Example 3],–,–,–,–
logP = 2.56^a),CN1CCN(Cc2c(S(C)(=O)=O)ccc(C(=O)C3=C(Sc4ccccc4)CCCC3=O)c2Cl)C1=O [Example 8],–,–,–,–
logP = 3.06^a),COc1nn(Cc2c(Cl)ccc(C(=O)C3=C(Sc4ccccc4)CCCC3=O)c2Cl)c(=O)n1C [Example 11],–,–,–,–
logP = 4.02^a),CCCCN1CCN(Cc2c(Cl)ccc(C(=O)C3=C(Sc4ccccc4)CCCC3=O)c2Cl)C1=O [Example 120],–,–,–,–
logP = 3.98^a),CC(C)CN1CCN(Cc2c(Cl)ccc(C(=O)C3=C(Sc4ccccc4)CCCC3=O)c2Cl)C1=O [Example 121],–,–,–,–
